Consider nine compounds from patent US8252895B2, “Cyclic peptide compounds” (Astellas Pharma Inc., priority 2005, dated 2012).

Square brackets hold non-standard residues; d marks the D form. Peptide text beside a SMILES is read from it. * marks the point of attachment. ξ: configuration not given here. MeBmt = C/C=C/C[C@@H](C)[C@@H](O)[C@H](NC)C(=O)O; NMeIle(3ξ) = CCC(C)[C@H](NC)C(=O)O; NMeThr(3ξ) = CN[C@H](C(=O)O)C(C)O; NMePhg = CN[C@H](C(=O)O)c1ccccc1; NMeT = CN[C@H](C(=O)O)[C@@H](C)O; NMeL = CN[C@@H](CC(C)C)C(=O)O; dNMeAbu = CC[C@@H](NC)C(=O)O; NMeV = CN[C@H](C(=O)O)C(C)C; dNMeS = CN[C@H](CO)C(=O)O; dNMeA = CN[C@H](C)C(=O)O; Sar = CNCC(=O)O; tBu = CC(C)(C)*

The target of the first experiment is HCV replicon. Type of experiment: cell-based, hepatitis C virus. To be noted: HCV replicon cells, luciferase activity two days after addition of compound, 50% of control (DMSO only). On the procedure: It is thought that the replication mechanism of the subgenomic HCV RNA in these cell lines is extremely similar to the replication of full length HCV RNA genome in hepatic cells infected with HCV.
The inhibitory activity of the test compounds against the replication of HCV replicon was evaluated by quantified the activity of luciferase, a reporter gene product encoded in the replicon system reported by Yokota et al., EMBO 4: 602-608 (2003). The enzyme assay was carried out according to the technical manual of the Steady-Glo® luciferase assay system (Promega). The replicon assay was carried out with the modified method reported by Lohmann et al., Science 285: 110 (1999). The details are described in the following.
6×10^3 HCV replicon cells in D-MEM medium containing 5% fetal bovine serum were seeded in each well of a 96-well microtiter plate (Corning Inc.). After the cells were incubated at 37° C. for 16 hours in 5% CO2, the test compound was added.
After cultivation for two more days, the culture medium was removed and 25 μl of Glo Lysis buffer was added to each well and incubated for 5 minutes. Allowing lysis to occur, 25 μl of Steady-Glo® assay reagent was added to each well. After incubation for 5 minutes, the luminescence was measured with a luminometer, Mithras LB940 (BERTHOLD TECHNOLOGIES GmbH & Co.KG) following the manufacturer's instructions.
The luciferase activities in replicon cells treated at each concentrations of the compound were employed for the calculation of EC50 value of the each compound, which gave the compound concentration indicating 50% enzyme activity level to the control (no drug group, containing only DMSO).
A general note: In antiviral work, replicon cells carry a viral genome segment that copies itself.
With `C/C=C/C[C@@H](C)[C@@H](O)[C@H]1C(=O)N[C@@H]([C@@H](C)O)C(=O)N(C)[C@H](COC)C(=O)N(C)[C@@H]([C@@H](C)OC)C(=O)N[C@@H](CC(C)C)C(=O)N(C)[C@@H](CC(C)C)C(=O)N[C@@H](C)C(=O)N[C@H](C)C(=O)N(C)[C@@H](CC(C)C)C(=O)N[C@@H](CC(C)C)C(=O)N(C)[C@@H](C(C)C)C(=O)N1C` [Example 9] (cyclo(A[dA][NMeL]L[NMeV][MeBmt]T[dNMeS](Me)[NMeT](Me)L[NMeL])), the “HCV replicon replication inhibitory activity: EC50” value was under 0.5 µg/mL.

Consider `C/C=C/C[C@@H](C)[C@@H](O)[C@H]1C(=O)N[C@@H]([C@@H](C)O)C(=O)N(C)[C@H](C)C(=O)N(C)[C@@H](C(C)O)C(=O)N[C@@H](CC(C)C)C(=O)N(C)[C@@H](CC(C)C)C(=O)N[C@@H](C)C(=O)N[C@H](C)C(=O)N(C)[C@@H](CC(C)C)C(=O)N[C@@H](CC(C)C)C(=O)N(C)[C@@H](C(C)C)C(=O)N1C` (stereo partly drawn) [Example 12, (3R,6S,9S,12S,15S,18S,21R,24S,27S,30S,33S)-6-[(1R)-1-hydroxyethyl]-33-(1-hydroxyethyl)-9-[(1R,2R,4E)-1-hydroxy-2-methyl-4-hexen-1-yl]-15,18,27,30-tetraisobutyl-12-isopropyl-1,3,4,10,13,19,21,24,28-nonamethyl-1,4,7,10,13,16,19,22,25,28,31-undecaazacyclotritriacontane-2,5,8,11,14,17,20,23,26,29,32-undecone] (cyclo(A[dA][NMeL]L[NMeV][MeBmt]T[dNMeA][NMeThr(3ξ)]L[NMeL])), for which the “HCV replicon replication inhibitory activity: EC50” value was under 0.5 µg/mL.

Regarding `C/C=C/C[C@@H](C)[C@@H](O)[C@H]1C(=O)N[C@@H]([C@@H](C)O)C(=O)N(C)[C@H](C)C(=O)N(C)[C@@H](C(C)CC)C(=O)N[C@@H](CC(C)C)C(=O)N(C)[C@@H](CC(C)C)C(=O)N[C@@H](C)C(=O)N[C@H](C)C(=O)N(C)[C@@H](CC(C)C)C(=O)N[C@@H](CC(C)C)C(=O)N(C)[C@@H](C(C)C)C(=O)N1C` (stereo partly drawn) [Example 14, (3R,6S,9S,12S,15S,18S,21R,24S,27S,30S,33S)-33-sec-butyl-6-[(1R)-1-hydroxyethyl]-9-[(1R,2R,4E)-1-hydroxy-2-methyl-4-hexen-1-yl]-15,18,27,30-tetraisobutyl-12-isopropyl-1,3,4,10,13,19,21,24,28-nonamethyl-1,4,7,10,13,16,19,22,25,28,31-undecaazacyclotritriacontane-2,5,8,11,14,17,20,23,26,29,32-undecone] (cyclo(A[dA][NMeL]L[NMeV][MeBmt]T[dNMeA][NMeIle(3ξ)]L[NMeL])), the “HCV replicon replication inhibitory activity: EC50” value was under 0.5 µg/mL.

Take `C/C=C/C[C@@H](C)[C@@H](O)[C@H]1C(=O)N[C@@H]([C@@H](C)O)C(=O)N(C)[C@H](C)C(=O)N(C)[C@@H](c2ccccc2)C(=O)N[C@@H](CC(C)C)C(=O)N(C)[C@@H](CC(C)C)C(=O)N[C@@H](C)C(=O)N[C@H](C)C(=O)N(C)[C@@H](CC(C)C)C(=O)N[C@@H](CC(C)C)C(=O)N(C)[C@@H](C(C)C)C(=O)N1C` [Example 15] (cyclo(A[dA][NMeL]L[NMeV][MeBmt]T[dNMeA][NMePhg]L[NMeL])): the “HCV replicon replication inhibitory activity: EC50” value is under 0.5 µg/mL.

In the case of `C/C=C/C[C@@H](C)[C@@H](O)[C@H]1C(=O)N[C@@H]([C@@H](C)O)C(=O)N(C)[C@H](CC)C(=O)N(C)[C@@H]([C@@H](C)OC)C(=O)N[C@@H](CC(C)C)C(=O)N(C)[C@@H](CC(C)C)C(=O)N[C@@H](C)C(=O)N[C@H](C)C(=O)N(C)[C@@H](CC(C)C)C(=O)N[C@@H](CC(C)C)C(=O)N(C)[C@@H](C(C)C)C(=O)N1C` [Example 16] (cyclo(A[dA][NMeL]L[NMeV][MeBmt]T[dNMeAbu][NMeT](Me)L[NMeL])), the “HCV replicon replication inhibitory activity: EC50” value was under 0.5 µg/mL.

`C/C=C/C[C@@H](C)[C@@H](O)[C@H]1C(=O)N[C@@H]([C@@H](C)O)C(=O)N(C)[C@H](C)C(=O)N(C)[C@@H](C(C)OC(C)(C)C)C(=O)N[C@@H](CC(C)C)C(=O)N(C)[C@@H](CC(C)C)C(=O)N[C@@H](C)C(=O)N[C@H](C)C(=O)N(C)[C@@H](CC(C)C)C(=O)N[C@@H](CC(C)C)C(=O)N(C)[C@@H](C(C)C)C(=O)N1C` (stereo partly drawn) [Example 25, (3R,6S,9S,12S,15S,18S,21R,24S,27S,30S,33S)-33-(1-tert-butoxyethyl)-6-[(1R)-1-hydroxyethyl]-9-[(1R,2R,4E)-1-hydroxy-2-methyl-4-hexen-1-yl]-15,18,27,30-tetraisobutyl-12-isopropyl-1,3,4,10,13,19,21,24,28-nonamethyl-1,4,7,10,13,16,19,22,25,28,31-undecaazacyclotritriacontane-2,5,8,11,14,17,20,23,26,29,32-undecone] (cyclo(A[dA][NMeL]L[NMeV][MeBmt]T[dNMeA][NMeThr(3ξ)](tBu)L[NMeL])): the “HCV replicon replication inhibitory activity: EC50” value is under 0.5 µg/mL.

In the case of `C/C=C/C[C@@H](C)[C@@H](O)[C@H]1C(=O)N[C@@H]([C@@H](C)O)C(=O)N(C)[C@H](C)C(=O)N(C)[C@@H]([C@@H](C)OC)C(=O)N[C@@H](CC(C)C)C(=O)N(C)[C@@H](CC(C)C)C(=O)N[C@@H](C)C(=O)N[C@H](C)C(=O)N(C)[C@@H](CC(C)C)C(=O)N[C@@H](CC(C)C)C(=O)N(C)[C@@H](C(C)C)C(=O)N1C` [Example 32] (cyclo(A[dA][NMeL]L[NMeV][MeBmt]T[dNMeA][NMeT](Me)L[NMeL])), the “HCV replicon replication inhibitory activity: EC50” value is under 0.5 µg/mL.

As for `C/C=C/C[C@@H](C)[C@@H](O)[C@H]1C(=O)N[C@@H]([C@@H](C)O)C(=O)N(C)CC(=O)N(C)[C@@H](C(C)OC(C)(C)C)C(=O)N[C@@H](CC(C)C)C(=O)N(C)[C@@H](CC(C)C)C(=O)N[C@@H](C)C(=O)N[C@H](C)C(=O)N(C)[C@@H](CC(C)C)C(=O)N[C@@H](CC(C)C)C(=O)N(C)[C@@H](C(C)C)C(=O)N1C` (stereo partly drawn) [Example 52, (3S,6S,9S,12R,15S,18S,21S,24S,30S,33S)-24-(1-tert-butoxyethyl)-30-[(1R)-1-hydroxyethyl]-33-[(1R,2R,4E)-1-hydroxy-2-methyl-4-hexen-1-yl]-6,9,18,21-tetraisobutyl-3-isopropyl-1,4,10,12,15,19,25,28-octamethyl-1,4,7,10,13,16,19,22,25,28,31-undecaazacyclotritriacontane-2,5,8,11,14,17,20,23,26,29,32-undecone] (cyclo(A[dA][NMeL]L[NMeV][MeBmt]T[Sar][NMeThr(3ξ)](tBu)L[NMeL])), the “HCV replicon replication inhibitory activity: EC50” value is under 0.5 µg/mL.

A further experiment concerns Human Immunodeficiency Virus Type 1 (HIV-1). To be noted: M. Thali et al., Nature 372, 363-365 (1994); cited from earlier work.
Regarding Cyclosporin A, the anti-HIV activity result is recorded as “anti-HIV activity”.

In another experiment the test system is HCV. To be noted: K. Inoue et al., 6th International Symposium on Hepatitis C and Related Virus (2000); cited from earlier work.
As to Cyclosporin A, the anti-HCV activity entry was “anti-HCV activity”.
